These results are taken from patent US20080299062A1, “Use of Oxocarboxylic Acids-Containing Combinations for Deodorization” (priority 2004, published 2008).

A short description of assay [1]: Odor of permanently waved hair strands, leave-on method (base: conditioner). The procedure: The test substances were tested on hair that had been freshly permanently waved. To this end, hair braids were cut into 2.5-cm pieces, bleached for 30 minutes and washed with perfume-free shampoo. To obtain fully odorless strands, the strands were then dipped three times into a mixture of isopropanol 25%/ethanol 25%/water 50%. The hair was kept for 24 hours in a conditioning room (20° C. at 85% relative humidity) and then cut to a weight of 2 g. This was followed by an odor test. Ten strands per post-treatment agent to be tested were wound onto rollers (diameter: 13 mm) and kept overnight in the conditioning room (20° C. at 85% relative humidity). The next morning, these strands were subjected to permanent waving.
Ten rollers holding 2 g of hair each were placed in a crystallizing dish and covered twice with 20 g of a commercial wave lotion, the rollers being turned over after the first 20 g to ensure uniform distribution. The rollers were then placed in a drier at 40° C. for 15 min, after which they were rinsed with water for 5 minutes namely for 2 min under running city water and for an additional 3 min by immersing them in water. The hair was then dabbed dry with a paper napkin. Afterward, the fixation was carried out with the aid of a commercial foam fixative. To this end, the rollers were immersed for 3 min in 500 mL of fixing solution. Excess fixing solution was then poured off, and the rollers were allowed to stand for an additional 7 minutes. They were then again rinsed with water for 5 min (see above) and dabbed dry with a paper napkin. Finally, the hair was detached from the roller and placed in a drier at 40° C. for 60 minutes.
To test the efficacy of the compounds as permanent wave post-treatment agents, the zinc salts and the corresponding zinc-free acids alone were incorporated at two different pH values into common cosmetic product bases. Zinc citrate (trizinc dicitrate) made soluble with a slight excess of citric acid was tested as the reference substance for a zinc salt without the odor-influencing counterion. The oxocarboxylic acids were used both as the sodium salts and in the form of their zinc salts. The pH values were then adjusted with citric acid or NaOH.
In the following example, 0.5 mL of a leave-on conditioner was massaged into the freshly permanently waved hair (2 g in each case), and after a contact time of 10 min the odor was evaluated by five test subjects (Table 1). In each case, the odor evaluation was performed on 3 test strands. The average values of the evaluation results are tabulated.
Each symbol stands for one test strand. • ◯=odor indistinguishable from that of blank • +=odor better than that of blank • ++=odor appreciably better than that of blank/odorless

Assay [2] in a line: Odor of permanently waved hair strands, rinse-off method (base: hair-cure agent).
The nature of assay [3]: Various odor tests carried out on permanently waved hair (general statements). The note with it: sulfur odor of permanently waved hair; general statement.

Turning to zinc levulinate [Zn levulinate], the “odor-reducing action (efficacy), in words” value in assay [1] (pH 2-3 and pH 4-5, summary of Table 1) is given as “unique in the entire pH range tested”. Further, the “Odor rating vs blank, Day 1, pH 2-3” value in assay [1] (test substance 0.01 wt. %, Day 1, wet, pH 2-3, each symbol = one test strand) is “+ + +”; in assay [2] (rinse-off hair-cure agent, 5-min contact, table head 0.01 wt. % (text b103: 0.1 wt. %), Day 1, wet, pH 2-3, each symbol = one test strand), “+ + +”. For the same substance, the “Odor rating vs blank, Day 1, pH 4-5” value in assay [1] (test substance 0.01 wt. %, Day 1, wet, pH 4-5, each symbol = one test strand) was “++ ++ and ++”; in assay [2] (rinse-off hair-cure agent, 5-min contact, table head 0.01 wt. % (text b103: 0.1 wt. %), Day 1, wet, pH 4-5, each symbol = one test strand), “++ ++ and ++”. Also, the “Odor rating vs blank, Day 2, pH 2-3” value in assay [1] (test substance 0.01 wt. %, Day 2, dry, pH 2-3, each symbol = one test strand) is “+ + +”; in assay [2] (rinse-off hair-cure agent, 5-min contact, table head 0.01 wt. % (text b103: 0.1 wt. %), Day 2, dry, pH 2-3, each symbol = one test strand), “+ + +”. Further, the “Odor rating vs blank, Day 2, pH 4-5” value was “+ + ++” in assay [1] (test substance 0.01 wt. %, Day 2, dry, pH 4-5, each symbol = one test strand) and “+ + +” in assay [2] (rinse-off hair-cure agent, 5-min contact, table head 0.01 wt. % (text b103: 0.1 wt. %), Day 2, dry, pH 4-5, each symbol = one test strand). In addition, the “Odor rating vs blank, Day 3, pH 2-3” value is given as “+ + +” in assay [1] (test substance 0.01 wt. %, Day 3, wet, pH 2-3, each symbol = one test strand) and “+ + +” in assay [2] (rinse-off hair-cure agent, 5-min contact, table head 0.01 wt. % (text b103: 0.1 wt. %), Day 3, wet, pH 2-3, each symbol = one test strand). The “Odor rating vs blank, Day 3, pH 4-5” value in assay [1] (test substance 0.01 wt. %, Day 3, wet, pH 4-5, each symbol = one test strand) is “++ ++ and ++”; in assay [2] (rinse-off hair-cure agent, 5-min contact, table head 0.01 wt. % (text b103: 0.1 wt. %), Day 3, wet, pH 4-5, each symbol = one test strand), “+ + +”. Besides, the “Odor rating vs blank, Day 4, pH 2-3” value in assay [1] (test substance 0.01 wt. %, Day 4, dry, pH 2-3, each symbol = one test strand) was “+ + +”; in assay [2] (rinse-off hair-cure agent, 5-min contact, table head 0.01 wt. % (text b103: 0.1 wt. %), Day 4, dry, pH 2-3, each symbol = one test strand), “+ + +”. The “Odor rating vs blank, Day 4, pH 4-5” value in assay [1] (test substance 0.01 wt. %, Day 4, dry, pH 4-5, each symbol = one test strand) is “+ ++ and ++”; in assay [2] (rinse-off hair-cure agent, 5-min contact, table head 0.01 wt. % (text b103: 0.1 wt. %), Day 4, dry, pH 4-5, each symbol = one test strand) it was “++ + ++”. Further, the “odor-reducing effect, in words” value in assay [2] (lowest concentrations in rinse-off products, applied immediately after permanent wave treatment or up to four days later) is reported as “drastic odor-reducing effect”. Also, in assay [3], the “odor-reducing effect on permanently waved hair, in words” value is “much more intense than that of any other zinc compound”.
